# In patent US9376425B2, “Heterocyclic compounds as MDM2 inhibitors for the treatment of cancer” (AMGEN INC., priority 2011, dated 2016):
# Target: T1, human MDM2 (GST-hMDM2 1-188), interaction with biotinylated-p53 (1-83) (Homo sapiens, UniProt Q00987)
# T1 construct: Amino acid residues 1-188 of human MDM2 were expressed; made in house; host or cells: Escherichia coli
# Test: improved HTRF assay (HTRF2 assay), inhibition of HDM2-p53 interaction
# Format: binding
# Conditions: 0.2 nM GST-hMDM2, 0.5 nM biotinylated-p53, 100 mM KF
# Procedure, shortened: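 GST-hMDM2 preincubated 20 min at RT with serially diluted compound, then biotinylated p53 (1-83, E. coli) added for 60 min. Detection with SA-XLent, anti-GST cryptate and KF, equilibrated >4 h; final DMSO 2%. TR-FRET read; % inhibition calculated relative to nutlin-3.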
# T1 sequence (Q00987 1-188): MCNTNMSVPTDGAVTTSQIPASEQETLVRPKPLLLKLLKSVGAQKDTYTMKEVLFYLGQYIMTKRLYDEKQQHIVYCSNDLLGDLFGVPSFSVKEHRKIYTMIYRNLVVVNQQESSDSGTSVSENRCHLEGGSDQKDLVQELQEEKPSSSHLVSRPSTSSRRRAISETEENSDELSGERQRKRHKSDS
row,SMILES,IC50 [nM]
1,"CC[C@@H](CS(=O)(=O)C(C)(C)C)N1C(=O)[C@@H](CC(=O)CO)O[C@H](c2cccc(Cl)c2)[C@H]1c1ccc(Cl)cc1 (single isomer, unassigned) [Example 245, (2R,5R,6R)-4-((S)-1-(tert-butylsulfonyl)butan-2-yl)-6-(3-chlorophenyl)-5-(4-chlorophenyl)-2-(3-hydroxy-2-oxopropyl)morpholin-3-one or (2S,5R,6R)-4-((S)-1-(tert-butylsulfonyl)butan-2-yl)-6-(3-chlorophenyl)-5-(4-chlorophenyl)-2-(3-hydroxy-2-oxopropyl)morpholin-3-one]",9
2,"CC[C@@H](CS(=O)(=O)CCN(C)C)N1C(=O)[C@@H](CC(=O)O)O[C@H](c2cccc(Cl)c2)[C@H]1c1ccc(Cl)cc1 (single isomer, unassigned) [Example 247, 2-((2R,5R,6R)-6-(3-chlorophenyl)-5-(4-chlorophenyl)-4-((S)-1-((2-(dimethylamino)ethyl)sulfonyl)butan-2-yl)-3-oxomorpholin-2-yl)acetic acid or 2-((2S,5R,6R)-6-(3-chlorophenyl)-5-(4-chlorophenyl)-4-((S)-1-((2-(dimethylamino)ethyl)sulfonyl)butan-2-yl)-3-oxomorpholin-2-yl)acetic acid]",3
3,"CC[C@@H](CS(=O)(=O)CCN(C)C)N1C(=O)[C@H](CC(=O)O)O[C@H](c2cccc(Cl)c2)[C@H]1c1ccc(Cl)cc1 (single isomer, unassigned) [Example 248, 2-((2S,5R,6R)-6-(3-chlorophenyl)-5-(4-chlorophenyl)-4-((S)-1-((2-(dimethylamino)ethyl)sulfonyl)butan-2-yl)-3-oxomorpholin-2-yl)acetic acid or 2-((2R,5R,6R)-6-(3-chlorophenyl)-5-(4-chlorophenyl)-4-((S)-1-((2-(dimethylamino)ethyl)sulfonyl)butan-2-yl)-3-oxomorpholin-2-yl)acetic acid]",8
4,"O=C(O)C[C@H]1OC(c2cccc(Cl)c2)C(c2ccc(Cl)cc2)N([C@H](CN(c2c(F)cccc2F)S(=O)(=O)C2CC2)C2CC2)C1=O (single isomer, unassigned) [Example 250]",< 1
5,"O=C(O)C[C@H]1O[C@H](c2cccc(Cl)c2)[C@@H](c2ccc(Cl)cc2)N([C@H](CN(c2c(F)cccc2F)S(=O)(=O)C2CC2)C2CC2)C1=O (single isomer, unassigned) [Example 251, 2-((2R,5R,6R)-6-(3-chlorophenyl)-5-(4-chlorophenyl)-4-((S)-1-cyclopropyl-2-(N-(2,6-difluorophenyl)cyclopropanesulfonamido)ethyl)-3-oxomorpholin-2-yl)acetic acid or 2-((2S,5R,6R)-6-(3-chlorophenyl)-5-(4-chlorophenyl)-4-((S)-1-cyclopropyl-2-(N-(2,6-difluorophenyl)cyclopropanesulfonamido)ethyl)-3-oxomorpholin-2-yl)acetic acid]",< 1
6,"CC[C@@H](CN(c1ccccc1F)S(=O)(=O)C1CC1)N1C(=O)[C@@H]([C@@H](C)C(=O)O)O[C@H](c2cccc(Cl)c2)[C@H]1c1ccc(Cl)cc1 (single isomer, unassigned) [Example 252]",1
7,"CC[C@@H](CN(c1ccccc1F)S(=O)(=O)C1CC1)N1C(=O)[C@@H]([C@@H](C)C(=O)O)O[C@H](c2cccc(Cl)c2)[C@H]1c1ccc(Cl)cc1 (single isomer, unassigned) [Example 253]",18
8,"CC[C@@H](CN(c1ccccc1F)S(=O)(=O)C1CC1)N1C(=O)[C@@H]([C@@H](C)C(=O)O)O[C@H](c2cccc(Cl)c2)[C@H]1c1ccc(Cl)cc1 (single isomer, unassigned) [Example 254]",1
9,"CC[C@@H](CN(c1ccccc1F)S(=O)(=O)C1CC1)N1C(=O)[C@@H]([C@@H](C)C(=O)O)O[C@H](c2cccc(Cl)c2)[C@H]1c1ccc(Cl)cc1 (single isomer, unassigned) [Example 255]",4
10,"NC(=O)C[C@@H]1O[C@H](c2cccc(Cl)c2)[C@@H](c2ccc(Cl)cc2)N([C@H](CN(c2ccccc2F)S(=O)(=O)C2CC2)C2CC2)C1=O (single isomer, unassigned) [Example 256, 2-((2S,5R,6R)-6-(3-chlorophenyl)-5-(4-chlorophenyl)-4-((S)-1-cyclopropyl-2-(N-(2-fluorophenyl)cyclopropanesulfonamido)ethyl)-3-oxomorpholin-2-yl)acetamide or 2-((2R,5R,6R)-6-(3-chlorophenyl)-5-(4-chlorophenyl)-4-((S)-1-cyclopropyl-2-(N-(2-fluorophenyl)cyclopropanesulfonamido)ethyl)-3-oxomorpholin-2-yl)acetamide]",< 1
11,"NC(=O)C[C@H]1O[C@H](c2cccc(Cl)c2)[C@@H](c2ccc(Cl)cc2)N([C@H](CN(c2ccccc2F)S(=O)(=O)C2CC2)C2CC2)C1=O (single isomer, unassigned) [Example 257, 2-((2R,5R,6R)-6-(3-chlorophenyl)-5-(4-chlorophenyl)-4-((S)-1-cyclopropyl-2-(N-(2-fluorophenyl)cyclopropanesulfonamido)ethyl)-3-oxomorpholin-2-yl)acetamide or 2-((2S,5R,6R)-6-(3-chlorophenyl)-5-(4-chlorophenyl)-4-((S)-1-cyclopropyl-2-(N-(2-fluorophenyl)cyclopropanesulfonamido)ethyl)-3-oxomorpholin-2-yl)acetamide]",< 1
12,"CC[C@@H](CN(c1ccccc1F)S(=O)(=O)C1CC1)N1C(=O)[C@H](CC(=O)NS(=O)(=O)C(C)C)O[C@H](c2cccc(Cl)c2)[C@H]1c1ccc(Cl)cc1 (single isomer, unassigned) [Example 258, 2-((2S,5R,6R)-6-(3-chlorophenyl)-5-(4-chlorophenyl)-4-((S)-1-(N-(2-fluorophenyl)cyclopropanesulfonamido)butan-2-yl)-3-oxomorpholin-2-yl)-N-(isopropylsulfonyl)acetamide or 2-((2R,5R,6R)-6-(3-chlorophenyl)-5-(4-chlorophenyl)-4-((5)-1-(N-(2-fluorophenyl)cyclopropanesulfonamido)butan-2-yl)-3-oxomorpholin-2-yl)-N-(isopropylsulfonyl)acetamide]",1
13,"CC[C@@H](CN(c1ccccc1F)S(=O)(=O)C1CC1)N1C(=O)[C@@H](CC(=O)NS(=O)(=O)C(C)C)O[C@H](c2cccc(Cl)c2)[C@H]1c1ccc(Cl)cc1 (single isomer, unassigned) [Example 259, 2-((2R,5R,6R)-6-(3-chlorophenyl)-5-(4-chlorophenyl)-4-((S)-1-(N-(2-fluorophenyl)cyclopropanesulfonamido)butan-2-yl)-3-oxomorpholin-2-yl)-N-(isopropylsulfonyl)acetamide or 2-((2S,5R,6R)-6-(3-chlorophenyl)-5-(4-chlorophenyl)-4-((S)-1-(N-(2-fluorophenyl)cyclopropanesulfonamido)butan-2-yl)-3-oxomorpholin-2-yl)-N-(isopropylsulfonyl)acetamide]",1
14,"CC[C@@H](CS(=O)(=O)C(C)(C)C)N1C(=O)[C@H](CC(N)=O)O[C@H](c2cccc(Cl)c2)[C@H]1c1ccc(Cl)cc1 (single isomer, unassigned) [Example 260, 2-((2S,5R,6R)-4-((S)-1-(tert-butylsulfonyl)butan-2-yl)-6-(3-chlorophenyl)-5-(4-chlorophenyl)-3-oxomorpholin-2-yl)acetamide or 2-((2R,5R,6R)-4-((S)-1-(tert-butylsulfonyl)butan-2-yl)-6-(3-chlorophenyl)-5-(4-chlorophenyl)-3-oxomorpholin-2-yl)]",8
15,"CC[C@@H](CS(=O)(=O)C(C)(C)C)N1C(=O)[C@@H](CC(N)=O)O[C@H](c2cccc(Cl)c2)[C@H]1c1ccc(Cl)cc1 (single isomer, unassigned) [Example 261, 2-((2R,5R,6R)-4-((S)-1-(tert-butylsulfonyl)butan-2-yl)-6-(3-chlorophenyl)-5-(4-chlorophenyl)-3-oxomorpholin-2-yl)acetamide or 2-((2S,5R,6R)-4-((S)-1-(tert-butylsulfonyl)butan-2-yl)-6-(3-chlorophenyl)-5-(4-chlorophenyl)-3-oxomorpholin-2-yl)acetamide]",6
16,"CC[C@@H](CN(c1ccccc1F)S(=O)(=O)C1CC1)N1C(=O)[C@@H](CCC(=O)O)O[C@H](c2cccc(Cl)c2)[C@H]1c1ccc(Cl)cc1 (single isomer, unassigned) [Example 262, 3-((2R,5R,6R)-6-(3-chlorophenyl)-5-(4-chlorophenyl)-4-((S)-1-(N-(2-fluorophenyl)cyclopropanesulfonamido)butan-2-yl)-3-oxomorpholin-2-yl)propanoic acid or 3-((2S,5R,6R)-6-(3-chlorophenyl)-5-(4-chlorophenyl)-4-((S)-1-(N-(2-fluorophenyl)cyclopropanesulfonamido)butan-2-yl)-3-oxomorpholin-2-yl)propanoic acid]",2
17,"CC[C@@H](CN(c1ccccc1F)S(=O)(=O)C1CC1)N1C(=O)[C@@H](CCC(=O)O)O[C@H](c2cccc(Cl)c2)[C@H]1c1ccc(Cl)cc1 (single isomer, unassigned) [Example 263, 3-((2R,5R,6R)-6-(3-chlorophenyl)-5-(4-chlorophenyl)-4-((S)-1-(N-(2-fluorophenyl)cyclopropanesulfonamido)butan-2-yl)-3-oxomorpholin-2-yl)propanoic acid or 3-((2S,5R,6R)-6-(3-chlorophenyl)-5-(4-chlorophenyl)-4-((S)-1-(N-(2-fluorophenyl)cyclopropanesulfonamido)butan-2-yl)-3-oxomorpholin-2-yl)propanoic acid]",2
